This note sets out measurements from US20180140609A1, “USE OF (4-HYDROXY-2-METHYL-1,1-DIOXIDO-2H-BENZO[E][1,2]THIAZINE-3-YL)(NAPHTHALENE-2-YL) METHANONE IN THE PREVENTION AND/OR TREATMENT OF NON-ALCOHOLIC STEATOHEPATITIS” (PIERRE FABRE MEDICAMENT, priority 2015, published 2018).

One series addresses T1, human 11β-HSD 1 (Homo sapiens, UniProt P28845).
T1 construct: evaluated on primary human adipocytes in culture (ZenBio); host or cells: primary human preadipocytes differentiated into adipocytes, from three donors
Briefly: Inhibition of human 11β-HSD 1 in primary human differentiated adipocytes in culture (cortisone to cortisol, SPA). Type of series: cell-based. Here is the method: Inhibition of human 11β-HSD 1 enzyme is evaluated on primary human adipocytes in culture (ZenBio).
Preadipocytes are thawed and their viability is confirmed. The preadipocytes are then placed in 96-well microplates in a specific preadipocyte medium (PM-1) provided by ZenBio; the plates are incubated at 37° C. with 5% CO2. One day or more after the cells are confluent, PM-1 is replaced with a more specific differentiation medium (DM), also provided by ZenBio, containing isobutylmethylxanthine, insulin, dexamethasone and a PPAR agonist. The cells will differentiate into adipocytes after a minimum of 7 days. Next, the mature adipocytes are maintained for 4 to 6 days in adipocyte maintenance medium (AM). Then, in the presence of serum treated with dextran-coated charcoal, the cells are placed in steroid-deficient conditions for 48 h, and are pretreated with the inhibitors to be tested or their carrier (0.1% DMSO) for 1 h at 37° C. before the pulse with cortisone. Tritiated cortisone is added for 4 hours to reach a final concentration of 20 nM. The cortisol concentration is quantified from the cell supernatant using SPA technology. EC50 values are obtained with the SigmaPlot v.11 software, four parameter logistic equation; the reported values come from three different experiments carried out on three different donors.

A short description of series [1]: Clinical and behavioral signs in cynomolgus monkeys during the prednisone challenge studies. Format: in vivo. The following applies: study no. 2, 20, 40 and 80 mg/kg, even at 80 mg/kg. The method, then:
Briefly, the study is carried out in naive adult male cynomolgus monkeys fasted overnight. The 11β-HSD type 1 inhibitor or its vehicle (0.5% methylcellulose in water) is administered via nasogastric intubation. Two hours later, a challenge with orally administered prednisone (10 mg/kg) is performed and blood samples are taken regularly for 24 hours. These samples are centrifuged to obtain plasma and immediately frozen at −70° C. until bioanalysis. Plasma levels of prednisone, prednisolone and 11β-HSD type 1 inhibitors are measured by LC-MS/MS analytical methods.
The study is carried out over a period of 10 weeks. Profiles of plasma concentration as a function of time and areas under the curve are calculated using the trapezoidal method for all parameters.

In a further series the test system is hepatic 11β-HSD type 1. The experiment in a line: Ex vivo activity of hepatic 11β-HSD type 1 after single oral administration in cynomolgus monkeys. As to conditions: 20 mg/kg single oral, liver 4 hours after administration. Here is the method:
Five adult male cynomolgus monkeys (same animals used in studies 1 and 2 of Example 4) are fasted the evening before the experiment. Blood samples are taken right before administration of Compound 1K (dose of 20 mg/kg, n=3) or administration of the vehicle (0.5% methylcellulose in water, n=2) then 4 hours after oral administration. The animals are euthanized, necropsy is performed on the monkeys, samples of plasma and of target tissues are taken and then frozen in liquid nitrogen and stored at −70° C. until ex vivo analyses. To test the ex vivo activity of 11β-HSD type 1, 5-10 mg liver samples were incubated in duplicate for 30 minutes at 37° C. with 17 nM [1,2-^3H] cortisone in 50 mM HEPES (pH 7.4), 100 mM KCl, 5 mM NaCl, 2 mM MgCl2. Plasma levels were measured by the LC-MS/MS analytical method. The liver samples were homogenized by sonication and extracted with acetonitrile (1 ml of distilled water, 4 ml of acetonitrile for 200 mg of tissue). Tissue levels of the compounds were measured by the LC-MS/MS analytical method.

T1 sequence (P28845 whole entry): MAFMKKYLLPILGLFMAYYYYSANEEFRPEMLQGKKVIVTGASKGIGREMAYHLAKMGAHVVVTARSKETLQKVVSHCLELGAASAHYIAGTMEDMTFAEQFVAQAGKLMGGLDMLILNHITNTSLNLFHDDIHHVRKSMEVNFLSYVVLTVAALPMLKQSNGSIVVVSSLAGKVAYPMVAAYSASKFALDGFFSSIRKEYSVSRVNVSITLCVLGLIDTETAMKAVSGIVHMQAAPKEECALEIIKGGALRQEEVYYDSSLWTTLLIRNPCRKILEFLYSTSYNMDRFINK

On to `CN1C(C(=O)c2ccc3ccccc3c2)=C([O-])c2ccccc2S1(=O)=O.[K+]` [Compound 1K, potassium 3-(2-naphthoyl)-2-methyl-2H-benzo[e][1,2]thiazin-4-olate 1,1-dioxide], for which the “Emax (% inhibition at 10 μM)” value on human 11β-HSD 1 (10 μM) came out at 97 % inhibition. Besides, on human 11β-HSD 1 (1 h pretreatment, 20 nM tritiated cortisone 4 h, three donors), the EC50 is 0.058 µM. Besides, the “clinical or behavioral sign” value in series [1] is “No particular clinical or behavioral sign”. For the same compound, the “inhibition of the ex vivo activity of hepatic 11β-HSD type 1” value in the series with hepatic 11β-HSD type 1 is 68%.
